{"source": "patent US6391900B1", "about": "“Cytotoxic tris(oxazole)-containing macrolides” (Instituto Biomar S.A., priority 1998, dated 2002)", "key": {"[1]": {"test_system": "P-388 (suspension culture of a lymphoid neoplasm from DBA/2 mouse)", "test": "in vitro cytotoxic assay, P-388 cells", "assay_type": "cell-based", "conditions": "P388, 72 h, three days of incubation, approximate IC50 by growth vs control wells", "procedure": "(§1) Cells were maintained in logarithmic phase of growth in Eagle's Minimum Essential Medium, with Earle's Balanced Salts, with 2.0 mM L-glutamine, with non-essential amino acids, without sodium bicarbonate EMEM/neaa); supplemented with 10% Fetal Calf Serum (FCS), 10^−2 M sodium bicarbonate and 0.1 g/l penicillin-G+streptomycin sulfate.\n(§2) A screening procedure has been carried out to determine and compare the antitumor activity of these compounds, using an adapted form of the method described by Bergeron et al. (Reference 5). The antitumor cells employed were P-388 (suspension culture of a lymphoid neoplasm from DBA/2 mouse), A-549 (monolayer culture of a human lung carcinoma), HT-29 (monolayer culture of a human colon carcinoma) and MEL-28 (monolayer culture of a human melanoma).\n(§3) P-139 cells were seeded into 16 mm wells at 1×10^4 sells per well in 1 ml aliquots of MEM SFCS containing the indicated concentration of drug. A separate set of cultures without drug was seeded as control growth to ensure that cells remained in exponential phase of growth. All determinations were carried out in duplicate. After three days of incubation at 37° C., 10% CO2 in a 98% humid atmosphere, an approximately IC50 was determined by comparing the growth in wells with drug to the growth in wells control."}, "[2]": {"test_system": "A-549 (monolayer culture of a human lung carcinoma)", "test": "in vitro cytotoxic assay, A-549 cells", "assay_type": "cell-based", "conditions": "A549, 72 h, three days of incubation, Crystal Violet staining, approximate IC50", "procedure": "as §1, §2\nas §3, with “A-549, HT-29 and MEL-28” for “P-139”, “2×10^4 cells” for “1×10^4 sells”, “10FCS” for “SFCS”, “the wells were stained with 0.1% Crystal Violet. An” for “an”"}, "[3]": {"test_system": "HT-29 (monolayer culture of a human colon carcinoma)", "test": "in vitro cytotoxic assay, HT-29 cells", "assay_type": "cell-based", "conditions": "72 h, three days of incubation, Crystal Violet staining, approximate IC50", "procedure": "as §1, §2\nas §3, with “A-549, HT-29 and MEL-28” for “P-139”, “2×10^4 cells” for “1×10^4 sells”, “10FCS” for “SFCS”, “the wells were stained with 0.1% Crystal Violet. An” for “an”"}, "[4]": {"test_system": "MEL-28 (monolayer culture of a human melanoma)", "test": "in vitro cytotoxic assay, MEL-28 cells", "assay_type": "cell-based", "conditions": "SK-MEL-28, 72 h, three days of incubation, Crystal Violet staining, approximate IC50", "procedure": "as §1, §2\nas §3, with “A-549, HT-29 and MEL-28” for “P-139”, “2×10^4 cells” for “1×10^4 sells”, “10FCS” for “SFCS”, “the wells were stained with 0.1% Crystal Violet. An” for “an”"}, "[5]": {"test_system": "solid tumors like A-549, HT-29 and MEL-28", "test": "in vitro antitumor selectivity across the cytotoxicity panel", "assay_type": "cell-based, human", "conditions": "solid tumor lines A-549, HT-29, MEL-28 compared with P-388", "procedure": "as §2, §3\nA-549, HT-29 and MEL-28 cells were seeded into 16 mm wells at 2×10^4 cells per well in 1 ml aliquots of MEM 10FCS containing the indicated concentration of drug. A separate set of cultures without drug was seeded as control growth to ensure that cells remained in exponential phase of growth. […] An approximately IC50 was determined by comparing the growth in wells with drug to the growth in wells control."}}}
{"smiles": "COC(CC1OC(=O)CC(OC(N)=O)CC(C)CC(O)C(C)C(OC)c2coc(n2)-c2coc(n2)-c2coc(n2)/C=C/CC(OC)C1C)C(C)CCC(=O)C(C)C(OC)C(C)CC=O", "note": "(centres unmarked) [TH-2]", "values": [{"measurement": "IC50", "setting": "[1]", "result": 11, "unit": "nM"}, {"measurement": "IC50", "setting": "[2]", "result": 2, "unit": "nM"}, {"measurement": "IC50", "setting": "[3]", "result": 2, "unit": "nM"}, {"measurement": "IC50", "setting": "[4]", "result": 2, "unit": "nM"}, {"measurement": "in vitro antitumor selectivity for solid tumors", "setting": "[5]", "result": "in vitro antitumor selectivity for solid timors"}]}
